From ChEMBL document CHEMBL1201861, “Genomics of Drug Sensitity in Cancer screening data, Wellcome Trust Sanger Institute”

Tests used:
Type in all cases: functional, cell-based
[1] = test system: NCI-H128; assay: SANGER: Inhibition of human NCI-H128 cell growth in a cell viability assay.
[2] = test system: SKM-1; assay: SANGER: Inhibition of human SKM-1 cell growth in a cell viability assay.
[3] = test system: CP67-MEL; assay: SANGER: Inhibition of human CP67-MEL cell growth in a cell viability assay.
[4] = test system: EW-12; assay: SANGER: Inhibition of human EW-12 cell growth in a cell viability assay.
[5] = test system: NCI-H2107; assay: SANGER: Inhibition of human NCI-H2107 cell growth in a cell viability assay.
[6] = test system: RL95-2; assay: cells; conditions: Homo sapiens;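 also: RL95-2 growth inhibition determined through a cell viability readout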
Description: SANGER: Inhibition of human RL95-2 cell growth in a cell viability assay.

[7] = test system: KP-N-RT-BM-1; assay: SANGER: Inhibition of human KP-N-RT-BM-1 cell growth in a cell viability assay.
[8] = test system: NCI-H1048; assay: cells; conditions: Homo sapiens;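 also: growth inhibition of human NCI-H1048 cells, read out with a cell viability assay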
Description: SANGER: Inhibition of human NCI-H1048 cell growth in a cell viability assay.

[9] = test system: NCI-H1666; assay: cells; conditions: Homo sapiens;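 also: growth inhibition of the cell line, read out with a cell viability assay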
Description: SANGER: Inhibition of human NCI-H1666 cell growth in a cell viability assay.

[10] = test system: TGBC11TKB; assay: cells; conditions: Homo sapiens;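 also: growth inhibition of human TGBC11TKB cells, measured by a cell viability assay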
Description: SANGER: Inhibition of human TGBC11TKB cell growth in a cell viability assay.

[11] = test system: SW900; assay: cells; conditions: Homo sapiens;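 also: IC50 is the concentration that inhibits SW900 cell growth, measured by a cell viability assay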
Description: SANGER: Inhibition of human SW900 cell growth in a cell viability assay.

[12] = test system: SW 1116; assay: cells; conditions: Homo sapiens;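 also: growth inhibition of SW1116 cells, read out with a cell viability assay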
Description: SANGER: Inhibition of human SW1116 cell growth in a cell viability assay.

[13] = test system: BALL-1; assay: cells; conditions: Homo sapiens;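 also: growth inhibition of BALL-1 cells, read out with a cell viability assay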
Description: SANGER: Inhibition of human BALL-1 cell growth in a cell viability assay.

[14] = test system: D-423MG; assay: cells; conditions: Homo sapiens
Description: SANGER: Inhibition of human D-423MG cell growth in a cell viability assay.

[15] = test system: CFPAC-1; assay: cells; conditions: Homo sapiens;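 also: cell viability readout used to gauge suppression of CFPAC-1 cell proliferation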
Description: SANGER: Inhibition of human CFPAC-1 cell growth in a cell viability assay.

[16] = test system: OC-314; assay: cells; conditions: Homo sapiens
Description: SANGER: Inhibition of human OC-314 cell growth in a cell viability assay.

[17] = test system: A549; assay: cells; conditions: Homo sapiens;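 also: growth inhibition of A549 cells, read out with a cell viability assay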
Description: SANGER: Inhibition of human A549 cell growth in a cell viability assay.

[18] = test system: RH-18; assay: cells; conditions: Homo sapiens, Rh18;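 also: growth inhibition of human RH-18 cells, read out with a cell viability assay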
Description: SANGER: Inhibition of human RH-18 cell growth in a cell viability assay.

[19] = test system: ZR-75-30; assay: cells; conditions: Homo sapiens;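 also: growth inhibition of ZR-75-30 cells, measured with a cell viability readout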
Description: SANGER: Inhibition of human ZR-75-30 cell growth in a cell viability assay.

[20] = test system: CHP-134; assay: SANGER: Inhibition of human CHP-134 cell growth in a cell viability assay.
[21] = test system: NCI-H2291; assay: cells; conditions: Homo sapiens
Description: SANGER: Inhibition of human NCI-H2291 cell growth in a cell viability assay.

[22] = test system: H-EMC-SS; assay: cells; conditions: Homo sapiens
Description: SANGER: Inhibition of human H-EMC-SS cell growth in a cell viability assay.

[23] = test system: NBsusSR; assay: cells; conditions: Homo sapiens;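 also: growth inhibition of the human cell line, read out with a cell viability assay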
Description: SANGER: Inhibition of human NBsusSR cell growth in a cell viability assay.

[24] = test system: NCI-H2029; assay: cells; conditions: Homo sapiens;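 also: Read-out is a viability assay on the cultured cells, and IC50 is the concentration that suppresses cell growth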
Description: SANGER: Inhibition of human NCI-H2029 cell growth in a cell viability assay.

[25] = test system: KNS-62; assay: cells; conditions: Homo sapiens;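 also: inhibition of cell growth, read out with a cell viability assay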
Description: SANGER: Inhibition of human KNS-62 cell growth in a cell viability assay.

[26] = test system: TI-73; assay: cells; conditions: Homo sapiens;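 also: cell viability assay measuring how much compounds suppress growth of the cultured cell line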
Description: SANGER: Inhibition of human TI-73 cell growth in a cell viability assay.

[27] = test system: D-566MG; assay: cells; conditions: Homo sapiens
[28] = test system: BT-549; assay: cells; conditions: Homo sapiens
Description: SANGER: Inhibition of human BT-549 cell growth in a cell viability assay.

[29] = test system: LU-135; assay: cells; conditions: Homo sapiens
Description: SANGER: Inhibition of human LU-135 cell growth in a cell viability assay.

[30] = test system: MDA-MB-468; assay: cells; conditions: Homo sapiens
Description: SANGER: Inhibition of human MDA-MB-468 cell growth in a cell viability assay.

[31] = test system: HCC1143; assay: cells; conditions: Homo sapiens;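 also: growth inhibition of human HCC1143 cells, read out with a cell viability assay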
Description: SANGER: Inhibition of human HCC1143 cell growth in a cell viability assay.

[32] = test system: COLO 205; assay: cells; conditions: Homo sapiens
Description: SANGER: Inhibition of human COLO-205 cell growth in a cell viability assay.

[33] = test system: SNU-475; assay: cells; conditions: Homo sapiens
Description: SANGER: Inhibition of human SNU-475 cell growth in a cell viability assay.

[34] = test system: TT; assay: cells; conditions: Homo sapiens
Description: SANGER: Inhibition of human TT cell growth in a cell viability assay.

[35] = test system: MFE-296; assay: SANGER: Inhibition of human MFE-296 cell growth in a cell viability assay.
[36] = test system: DV-90; assay: cells; conditions: Homo sapiens;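 also: Read-out is a viability assay, with IC50 reflecting the drop in DV-90 cell growth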
Description: SANGER: Inhibition of human DV-90 cell growth in a cell viability assay.

[37] = test system: C-4-II; assay: SANGER: Inhibition of human C-4-II cell growth in a cell viability assay.
[38] = test system: EFE-184; assay: cells; conditions: Homo sapiens
Description: SANGER: Inhibition of human EFE-184 cell growth in a cell viability assay.

[39] = test system: PLC-PRF-5; assay: cells; conditions: Homo sapiens;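 also: growth inhibition of human PLC-PRF-5 cells, read out with a viability assay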
Description: SANGER: Inhibition of human PLC-PRF-5 cell growth in a cell viability assay.

[40] = test system: SK-CO-1; assay: cells; conditions: Homo sapiens;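 also: growth inhibition of SK-CO-1 cells, determined by a viability readout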
Description: SANGER: Inhibition of human SK-CO-1 cell growth in a cell viability assay.

[41] = test system: NCI-H1734; assay: cells; conditions: Homo sapiens;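 also: growth inhibition of human NCI-H1734 cells, read out with a cell viability assay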
Description: SANGER: Inhibition of human NCI-H1734 cell growth in a cell viability assay.

[42] = test system: Caov-3 cell line; assay: cells; conditions: Homo sapiens;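 also: cell growth inhibition read out by a viability assay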
Description: SANGER: Inhibition of human Caov-3 cell growth in a cell viability assay.

[43] = test system: NCI-H1618; assay: cells; conditions: Homo sapiens;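 also: growth inhibition of human NCI-H1618 cells, measured by a cell viability assay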
Description: SANGER: Inhibition of human NCI-H1618 cell growth in a cell viability assay.

[44] = test system: NCI-H2227; assay: cells; conditions: Homo sapiens;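 also: growth inhibition of the human cell line, read out with a cell viability assay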
Description: SANGER: Inhibition of human NCI-H2227 cell growth in a cell viability assay.

[45] = test system: SNG-M; assay: cells; conditions: Homo sapiens
Description: SANGER: Inhibition of human SNG-M cell growth in a cell viability assay.

[46] = test system: DMS-53; assay: cells; conditions: Homo sapiens;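 also: cell viability assay measuring growth inhibition of human DMS-53 cells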
Description: SANGER: Inhibition of human DMS-53 cell growth in a cell viability assay.

[47] = test system: NCI-H838; assay: cells; conditions: Homo sapiens;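 also: growth inhibition of human NCI-H838 cells, read out by a cell viability assay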
Description: SANGER: Inhibition of human NCI-H838 cell growth in a cell viability assay.

[48] = test system: CCF-STTG1; assay: cells; conditions: Homo sapiens;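 also: growth inhibition of human CCF-STTG1 cells, determined with a cell viability read-out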
Description: SANGER: Inhibition of human CCF-STTG1 cell growth in a cell viability assay.

[49] = test system: MES-SA; assay: cells; conditions: Homo sapiens;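 also: growth inhibition of human MES-SA cells, read out with a cell viability assay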
Description: SANGER: Inhibition of human MES-SA cell growth in a cell viability assay.

CCNc1cc(N[C@H]2CC[C@@H](O)CC2)nc(Nc2ccc3c(ccn3Cc3ccccc3)c2)n1
IC50 [1]: > 5120 nM
IC50 [2]: > 5120 nM
IC50 [3]: > 5120 nM
IC50 [4]: > 5120 nM
IC50 [5]: > 5120 nM
IC50 [6]: 3200 nM
IC50 [7]: > 5120 nM

O=c1cc(N2CCOCC2)oc2c(-c3cccc4c3sc3ccccc34)cccc12
IC50 [8]: > 2000 nM
IC50 [9]: > 2000 nM
IC50 [10]: > 2000 nM
IC50 [11]: > 2000 nM
IC50 [12]: > 2000 nM
IC50 [13]: > 2000 nM
IC50 [14]: 1690 nM
IC50 [15]: > 2000 nM
IC50 [16]: > 2000 nM
IC50 [17]: > 2000 nM
IC50 [18]: > 2000 nM
IC50 [19]: > 2000 nM
IC50 [20]: > 2000 nM
IC50 [21]: > 2000 nM
IC50 [22]: > 2000 nM
IC50 [23]: > 2000 nM
IC50 [24]: > 2000 nM
IC50 [25]: > 2000 nM
IC50 [26]: > 2000 nM
IC50 [27]: > 2000 nM
IC50 [28]: > 2000 nM
IC50 [29]: > 2000 nM

N#C/C(=C1/Nc2ccccc2S1)c1ccnc(NCCc2cccnc2)n1
IC50 [30]: > 8000 nM
IC50 [31]: 4210 nM
IC50 [32]: > 8000 nM
IC50 [33]: > 8000 nM
IC50 [34]: > 8000 nM
IC50 [35]: 1550 nM
IC50 [36]: > 8000 nM
IC50 [37]: > 8000 nM
IC50 [38]: 4700 nM
IC50 [39]: > 8000 nM
IC50 [40]: > 8000 nM
IC50 [41]: > 8000 nM
IC50 [42]: > 8000 nM
IC50 [43]: > 8000 nM
IC50 [44]: > 8000 nM
IC50 [45]: 980 nM
IC50 [46]: > 8000 nM
IC50 [47]: > 8000 nM
IC50 [48]: 6410 nM
IC50 [49]: 4670 nM

COc1cc(C)c(Sc2cnc(NC(=O)c3ccc(CNC(C)C(C)(C)C)cc3)s2)cc1C(=O)N1CCN(C(C)=O)CC1 (stereo not drawn)
IC50 [1]: > 10200 nM
IC50 [2]: > 10200 nM
IC50 [3]: > 10200 nM
IC50 [4]: > 10200 nM
IC50 [5]: > 10200 nM
IC50 [6]: 4510 nM
IC50 [7]: > 10200 nM

C/C(O)=C(\C#N)C(=O)Nc1cc(Br)ccc1Br
IC50 [30]: > 16000 nM
IC50 [31]: > 16000 nM
IC50 [32]: > 16000 nM
IC50 [33]: > 16000 nM
IC50 [34]: > 16000 nM
IC50 [35]: > 16000 nM
IC50 [36]: > 16000 nM
IC50 [37]: > 16000 nM
IC50 [38]: > 16000 nM
IC50 [39]: > 16000 nM
IC50 [40]: > 16000 nM
IC50 [41]: > 16000 nM
IC50 [42]: > 16000 nM
IC50 [43]: > 16000 nM
IC50 [44]: > 16000 nM
IC50 [45]: > 16000 nM
IC50 [46]: > 16000 nM
IC50 [47]: > 16000 nM
IC50 [48]: > 16000 nM
IC50 [49]: > 16000 nM

Cc1n[nH]c2ccc(-c3cncc(OC[C@@H](N)Cc4c[nH]c5ccccc45)c3)cc12 [A-443654]
IC50 [1]: > 1020 nM
IC50 [2]: > 1020 nM
IC50 [3]: 313 nM
IC50 [4]: > 1020 nM
IC50 [5]: 958 nM
IC50 [6]: 22.8 nM
IC50 [7]: 911 nM

CC(O)(CS(=O)(=O)c1ccc(F)cc1)C(=O)Nc1ccc(C#N)c(C(F)(F)F)c1 (stereo not drawn) [BICALUTAMIDE]
IC50 [30]: > 1020 nM
IC50 [31]: > 1020 nM
IC50 [32]: > 1020 nM
IC50 [33]: > 1020 nM
IC50 [34]: > 1020 nM
IC50 [35]: > 1020 nM
IC50 [36]: > 1020 nM
IC50 [37]: > 1020 nM
IC50 [38]: > 1020 nM
IC50 [39]: > 1020 nM
IC50 [40]: > 1020 nM
IC50 [41]: > 1020 nM
IC50 [42]: > 1020 nM
IC50 [43]: > 1020 nM
IC50 [44]: > 1020 nM
IC50 [45]: > 1020 nM
IC50 [46]: > 1020 nM
IC50 [47]: > 1020 nM
IC50 [48]: > 1020 nM
IC50 [49]: > 1020 nM
